Where only a bound is given, the exact number is not on record here.

One assay has as its target T1, BTK (Homo sapiens, UniProt Q06187).
T1 construct: endogenous in cells; host or cells: Ramos cells
As to the kind of experiment: Btk target site occupancy, covalent probe ELISA in Ramos cells. It is filed as cell-based. The note with it: 1 hour at 37° C., 0.09-200 nM, read-out: Ramos cell EC50 (nM), BTK occupancy. The method, then:
A covalent probe shown below was used in an ELISA assay to determine occupancy of the target BTK by certain compounds according to the invention.
Ramos cells were incubated in serum-free RPMI medium for 1 hour (˜2×10^6 cells/mL in 2 mL). Test compounds were diluted from a 10 mM DMSO stock solution, to achieve a final concentration of 0.09, 0.27, 0.82, 2.47, 7.42, 22.2, 66, and 200 nM. Cells were then incubated for 1 hour at 37° C. Following incubation, cells were spun at 1100 RPM for 5 minutes then washed in 200 μL of chilled PBS. Following the wash, cells were spun at 1100 RPM for 5 minutes. The supernatant was aspirated and then cells were resuspended in lysis buffer containing protease and phosphatase inhibitors. This was followed by centrifugation for 15 minutes at 14000 RPM at 4° C. Supernatant was transferred to a fresh tube. Lysates were stored at −80° C. until assayed.
Samples were thawed and mixed well by vortexing for 5 seconds. 60 μL of each sample was added into the 96-well mixing plate followed by addition of 60 μL of covalent probe solution (2 μM probe in PBS+0.05% Tween-20+1% BSA; 1:2 sample dilution) to each well containing sample. An adhesive cover was then placed on the plate followed by mixing of the plate on a shaker for 1 hour at room temperature. The streptavidin plate was pre-washed 3 times with PBS+0.05% Tween-20. 50 μL of the standards, QCs, and samples were then transferred from the mixing plate to the streptavidin plate. The plate was covered with an adhesive cover and mixed while shaking for 1 hour at room temperature. A 1:1000 dilution of the primary anti-Btk antibody (catalog #611116, Becton Dickinson; Franklin Lakes, N.J.) in PBS+0.05% Tween-20+0.5% BSA was prepared. The streptavidin plate was washed 3 times with PBS+0.05% Tween-20 and 50 μL/well of diluted anti-Btk antibody was then pipetted into the streptavidin plate. The plate was covered and incubated for 1 hour at room temperature. A 1:5000 dilution of secondary antibody (goat anti-mouse-HRP, catalog #62-6520, Zymed-Invitrogen; Carlsbad, Calif.) in PBS+0.05% Tween-20+0.5% BSA was prepared. The streptavidin plate was again washed 3 times with PBS+0.05% Tween-20 and 50 μL/well of diluted secondary antibody was pipetted into the streptavidin plate. The plate was covered and incubated for 1 hour at room temperature. The streptavidin plate was again washed 3 times with PBS+0.05% Tween-20 followed by the addition of 100 μL of TMB solution to each well. The plate was then read on a Synergy^2 plate reader at OD 650 nm until the OD maximum reached 1.0. This was followed by the addition of 100 μL of the Stop Solution. The plate was then read at OD 450 nm. A human recombinant Btk protein standard curve (11.7-3000 pg/μL) was plotted using a 4 parameter curve fit in GenS software (Version 1.05.11; Biotek; Winooski, Vt.;). The sample ODs were read against the standard curve to calculate free protein amounts.
Data were generated as ODs on an ELISA plate reader (Synergy^2, BioTek; Winooski, Vt.). Uninhibited Btk captured by the biotinylated covalent probe was quantitated and normalized to untreated control samples. Results were expressed as % Btk occupancy. EC50 values were generated using a 4 parameter curve fit analysis in GraphPad Prism version 5.0.

The test system of assay [1] is PLCγ2 phosphorylation (Phospho Y-1217 PLCγ2) in Ramos cells. Kind of assay: Btk Ramos cell signaling immunoblot analysis, phospho-PLCγ2. It is filed as cell-based. The note with it: 1 hour compound incubation, anti-human IgM stimulation, read-out: pPLCγ2 EC50. The method, then:
The following example describes testing certain compounds according to the invention for inhibition of BTK activity. Ramos cells were incubated in serum-free RPMI medium for 1-1.5 hours. Cells were then centrifuged for 5 minutes at 1100 RPM and resuspended in serum-free RPMI in 15 mL roundbottom Corning tubes (˜2×10^6 cells/mL in 4 mL/tube). The compound was diluted in DMSO and was added to the cells to achieve a final concentration of 0.0003, 0.001, 0.003, 0.01, 0.03, 0.1, 0.3, and 1.0 μM. Cells were then incubated for 1 hour at 37° C. Following incubation, cells were spun at 1100 RPM for 5 minutes and then resuspended in 100 μL of serum-free RPMI. […] Supernatant was transferred to a fresh tube and analyzed for protein content. […]
10 μg of protein was denatured by adding 1:10 (v:v) of NuPage Reducing Agent plus 1:4 (v:v) of LDS Loading Buffer. […] The membrane was then scanned on a LiCor Odyssey Scanner using infrared fluorescence detection.
Data analysis was accomplished using the analysis package found in Odyssey Infrared Imaging System software in which intensities of total Btk and phospho-Btk were measured. Phospho-Btk was normalized to total Btk protein in each lane as a loading control and results are expressed as % activity compared to the DMSO control (100%) Inhibition of phospho-PLCγ2 was quantitated in a similar manner. […]

T1 sequence (Q06187 whole entry): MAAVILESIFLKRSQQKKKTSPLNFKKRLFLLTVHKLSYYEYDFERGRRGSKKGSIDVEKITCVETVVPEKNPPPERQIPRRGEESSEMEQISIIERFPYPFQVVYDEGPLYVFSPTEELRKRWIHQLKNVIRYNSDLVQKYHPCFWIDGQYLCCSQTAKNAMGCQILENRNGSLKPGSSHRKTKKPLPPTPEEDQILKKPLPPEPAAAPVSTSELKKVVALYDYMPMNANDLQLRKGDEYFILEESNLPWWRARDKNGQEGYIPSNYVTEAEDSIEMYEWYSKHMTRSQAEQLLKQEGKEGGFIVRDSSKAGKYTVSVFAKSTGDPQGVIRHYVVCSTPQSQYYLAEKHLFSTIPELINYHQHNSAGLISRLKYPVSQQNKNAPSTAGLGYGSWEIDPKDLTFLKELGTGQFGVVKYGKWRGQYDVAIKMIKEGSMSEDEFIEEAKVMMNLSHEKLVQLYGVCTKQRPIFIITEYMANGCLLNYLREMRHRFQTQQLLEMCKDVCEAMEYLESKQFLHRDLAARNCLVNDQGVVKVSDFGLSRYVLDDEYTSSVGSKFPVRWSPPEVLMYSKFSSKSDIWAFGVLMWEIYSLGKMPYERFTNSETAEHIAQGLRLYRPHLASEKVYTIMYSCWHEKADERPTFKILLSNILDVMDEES

Turning to `C=CC(=O)Nc1cccc(Nc2nc(Nc3ccc(OCCO)cc3)ncc2F)c1` [Compound I-1, N-(3-((5-fluoro-2-((4-(2-hydroxyethoxy)phenyl)amino)pyrimidin-4-yl)amino)phenyl)acrylamide], the EC50 at BTK is below 50 nM; in assay [1], below 10 nM.

For the compound `C=CC(=O)Nc1cccc(Nc2nc(Nc3ccc(O)cc3)ncc2F)c1` [Compound I-3, N-(3-((5-fluoro-2-((4-hydroxyphenyl)amino)pyrimidin-4-yl)amino)phenyl)acrylamide], the EC50 on BTK was below 50 nM; in assay [1] it was 10 to 50 nM.

The values are drawn from patent US9415049B2, “Heteroaryl compounds and uses thereof” (Celgene Avilomics Research, Inc., priority 2013, dated 2016).
